Results published in US20240209028A1, “CNP COMPOUNDS” (priority 2022, published 2024).
Values joined by “and” are separate entries in the source; they are usually repeats but may differ in a detail not shown here. Equal values may be shown once. Starred links: 1 amine or outer side, 2 acyl side, 3 side chain; linkers in the order of their positions; H or OH if unused. Positions of bridges follow the written chain, without caps; N, C: chain ends. Residues, ends and D or L forms follow the SMILES beside them. *: point of attachment. C18 diacid = O=C(O)CCCCCCCCCCCCCCCCC(=O)*; γGlu = O=C(O)[C@H](CCC(=O)[*:2])N[*:1]; AEEA = NCCOCCOCC(=O)O

Tests used:
[1] = molecular target: T1, human natriuretic peptide receptor 2 (hNPR2) (Homo sapiens, UniProt P20594); assay: In vitro hNPR2 activity assay (cGMP GloSensor reporter, HEK293); type: cell-based; settings: for hNPR2 0% HSA. [EC50% rel CNP]: potency relative to CNP22 (0065); for EC50: 0% HSA, HEK293-hNPR2/GloSensor cells
T1 construct: expressed in transfected cells; host or cells: HEK293 (ATCC CRL-1573), clone 35, co-transfected with pGloSensor-42F
T1 sequence (P20594 23-1047): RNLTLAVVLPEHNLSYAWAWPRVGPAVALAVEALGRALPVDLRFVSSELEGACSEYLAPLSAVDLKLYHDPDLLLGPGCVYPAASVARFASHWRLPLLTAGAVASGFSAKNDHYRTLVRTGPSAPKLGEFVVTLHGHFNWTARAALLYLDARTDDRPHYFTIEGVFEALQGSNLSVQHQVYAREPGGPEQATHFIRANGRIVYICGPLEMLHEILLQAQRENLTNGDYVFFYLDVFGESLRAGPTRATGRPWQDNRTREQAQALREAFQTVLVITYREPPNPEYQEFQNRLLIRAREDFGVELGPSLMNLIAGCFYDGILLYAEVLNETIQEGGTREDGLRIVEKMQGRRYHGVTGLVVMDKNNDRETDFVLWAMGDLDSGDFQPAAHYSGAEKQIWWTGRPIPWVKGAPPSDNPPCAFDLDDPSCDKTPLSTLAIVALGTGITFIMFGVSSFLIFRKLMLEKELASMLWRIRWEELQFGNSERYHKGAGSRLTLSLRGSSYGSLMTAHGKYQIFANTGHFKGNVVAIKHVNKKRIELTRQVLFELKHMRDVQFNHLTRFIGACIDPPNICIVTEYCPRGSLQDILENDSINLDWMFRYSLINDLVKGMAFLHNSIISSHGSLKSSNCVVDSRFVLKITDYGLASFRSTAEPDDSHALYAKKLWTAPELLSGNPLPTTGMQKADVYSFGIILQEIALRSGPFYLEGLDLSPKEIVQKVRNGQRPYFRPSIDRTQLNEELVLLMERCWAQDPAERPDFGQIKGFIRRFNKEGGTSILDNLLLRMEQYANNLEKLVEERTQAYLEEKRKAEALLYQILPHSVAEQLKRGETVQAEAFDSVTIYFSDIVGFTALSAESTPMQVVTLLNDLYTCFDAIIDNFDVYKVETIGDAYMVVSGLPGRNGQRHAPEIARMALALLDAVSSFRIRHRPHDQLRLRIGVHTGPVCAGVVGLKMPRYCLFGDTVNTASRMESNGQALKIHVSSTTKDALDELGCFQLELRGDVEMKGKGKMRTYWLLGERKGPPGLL
How it was run: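 Potency is the EC50 from a four-parameter logistic fit, also expressed relative to the in-plate CNP22 control (×100), with at least two replicates. Compounds (ten concentrations, […], HSA-free diluent with 1% OVA, 0.01% Tween20) were incubated 30 min at 37 °C on HEK293 cells co-expressing hNPR2 and a GloSensor cGMP luciferase. Luminescence detected with Bright-Glo.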

[2] = High-Molecular-Weight-Protein (HMWP) formation by SEC-UPLC; type: physicochemical; settings: increase over two weeks at 37° C.
How it was run: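 Formulations at pH 4.0 or 6.5 incubated quiescently for two weeks at 37 °C; HMWP (peaks eluting before monomer, % of total peptide area) measured by SEC-UPLC, pH 2.4 mobile phase with 50% isopropanol, 50 °C, UV 215 nm. Value is HMWP increase, normalized to two weeks if needed.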

| Structure (SMILES) | hNPR2 0% HSA. [EC50% rel CNP] [1] | 2-Week HMWP formation at pH 4.0 (%), % relative to total peak area [2] | EC50 [1] | 2-Week HMWP formation at pH 6.5 (%), % relative to total peak area ([2]; pH 6.5) |
| --- | --- | --- | --- | --- |
| CC[C@H](C)[C@@H]1NC(=O)[C@H](CCCNC(=N)N)NC(=O)[C@H](CC(=O)O)NC(=O)[C@H](CC(C)C)NC(=O)[C@@H]2CCCN2C(=O)[C@H](CC(C)C)NC(=O)CNC(=O)[C@H](Cc2ccccc2)NC(=O)[C@@H](NC(=O)CNC(=O)[C@H](CO)NC(=O)[C@H](CO)NC(=O)[C@H](CC(C)C)NC(=O)CNC(=O)[C@H](CCCCN)NC(=O)[C@H](CCCCN)NC(=O)[C@H](CCC(N)=O)NC(=O)[C@H](C)NC(=O)CNC(=O)[C@H](CCCCN)NC(=O)[C@H](Cc2ccc(O)cc2)NC(=O)[C@H](CCCCN)NC(=O)[C@H](CCCNC(=N)N)NC(=O)[C@H](C)NC(=O)[C@H](CCC(N)=O)NC(=O)[C@@H]2CCCN2C(=O)[C@H](Cc2c[nH]cn2)NC(=O)[C@H](CCC(=O)O)NC(=O)[C@H](CCC(N)=O)NC(=O)COCCOCCNC(=O)COCCOCCNC(=O)CC[C@H](NC(=O)CC[C@H](NC(=O)CC[C@H](NC(=O)CC[C@H](NC(=O)CCCCCCCCCCCCCCCCC(=O)O)C(=O)O)C(=O)O)C(=O)O)C(=O)O)CSSC[C@@H](C(=O)O)NC(=O)CNC(=O)[C@H](CC(C)C)NC(=O)CNC(=O)[C@H](CO)NC(=O)[C@H](CC(C)C)NC(=O)[C@H](CO)NC(=O)CNC1=O [compound 1473] ({C18 diacid-γGlu-γGlu-γGlu-γGlu-AEEA-AEEA}-QEHPQARKYKGAQKKGLSSGCFGLPLDRIGSLSGLGC-OH; disulfide 21-37; C-terminus assumed) | 107.7% | 0.9% and 1.26% | – | – |
| CC[C@H](C)[C@@H]1NC(=O)[C@H](CCCNC(=N)N)NC(=O)[C@H](CC(=O)O)NC(=O)[C@H](CC(C)C)NC(=O)[C@@H]2CCCN2C(=O)[C@H](CC(C)C)NC(=O)CNC(=O)[C@H](Cc2ccccc2)NC(=O)[C@@H](NC(=O)CNC(=O)[C@H](CCCCN)NC(=O)[C@H](CO)NC(=O)[C@H](CC(C)C)NC(=O)CNC(=O)[C@H](CCCCN)NC(=O)[C@H](CCCCN)NC(=O)[C@H](CCC(N)=O)NC(=O)[C@H](C)NC(=O)CNC(=O)[C@H](CCCCN)NC(=O)[C@H](Cc2ccc(O)cc2)NC(=O)[C@H](CCCCN)NC(=O)[C@H](CCCNC(=N)N)NC(=O)[C@H](C)NC(=O)[C@H](CCC(N)=O)NC(=O)[C@@H]2CCCN2C(=O)[C@H](Cc2c[nH]cn2)NC(=O)[C@H](CCC(=O)O)NC(=O)[C@H](CCC(N)=O)NC(=O)COCCOCCNC(=O)COCCOCCNC(=O)CC[C@H](NC(=O)CC[C@H](NC(=O)CC[C@H](NC(=O)CC[C@H](NC(=O)CC[C@H](NC(=O)CCCCCCCCCCCCCCCCC(=O)O)C(=O)O)C(=O)O)C(=O)O)C(=O)O)C(=O)O)CSSC[C@@H](C(=O)O)NC(=O)CNC(=O)[C@H](CC(C)C)NC(=O)CNC(=O)[C@H](CO)NC(=O)[C@H](CC(C)C)NC(=O)[C@H](CO)NC(=O)CNC1=O [compound 1474] ({C18 diacid-γGlu-γGlu-γGlu-γGlu-γGlu-AEEA-AEEA}-QEHPQARKYKGAQKKGLSKGCFGLPLDRIGSLSGLGC-OH; disulfide 21-37; C-terminus assumed) | 62.5% | 1.6% | – | – |
| CC[C@H](C)[C@@H]1NC(=O)[C@H](CCCNC(=N)N)NC(=O)[C@H](CCC(=O)O)NC(=O)[C@H](CC(C)C)NC(=O)[C@@H]2CCCN2C(=O)[C@H](CC(C)C)NC(=O)CNC(=O)[C@H](Cc2ccccc2)NC(=O)[C@@H](NC(=O)CNC(=O)[C@H](CCC(N)=O)NC(=O)[C@H](CO)NC(=O)[C@H](CC(C)C)NC(=O)CNC(=O)[C@H](CCCCN)NC(=O)[C@H](CCCCN)NC(=O)[C@H](CCC(N)=O)NC(=O)[C@H](C)NC(=O)CNC(=O)[C@H](CCCCN)NC(=O)[C@H](Cc2ccc(O)cc2)NC(=O)[C@H](CCCCN)NC(=O)[C@H](CCCNC(=N)N)NC(=O)[C@H](C)NC(=O)COCCOCCNC(=O)COCCOCCNC(=O)COCCOCCNC(=O)COCCOCCNC(=O)CC[C@H](NC(=O)CC[C@H](NC(=O)CC[C@H](NC(=O)CC[C@H](NC(=O)CC[C@H](NC(=O)CCCCCCCCCCCCCCCCC(=O)O)C(=O)O)C(=O)O)C(=O)O)C(=O)O)C(=O)O)CSSC[C@@H](C(=O)O)NC(=O)CNC(=O)[C@H](CC(C)C)NC(=O)CNC(=O)[C@H](CO)NC(=O)[C@H](CC(C)C)NC(=O)[C@H](CO)NC(=O)CNC1=O [compound 1477] ({C18 diacid-γGlu-γGlu-γGlu-γGlu-γGlu-AEEA-AEEA-AEEA-AEEA}-ARKYKGAQKKGLSQGCFGLPLERIGSLSGLGC-OH; disulfide 16-32) | 10.3% | – | 0.13 nM | 1.83% |
| CC[C@H](C)[C@@H]1NC(=O)[C@H](CCCNC(=N)N)NC(=O)[C@H](CC(=O)O)NC(=O)[C@H](CC(C)C)NC(=O)[C@@H]2CCCN2C(=O)[C@H](CC(C)C)NC(=O)CNC(=O)[C@H](Cc2ccccc2)NC(=O)[C@@H](NC(=O)CNC(=O)[C@H](CCC(N)=O)NC(=O)[C@H](CO)NC(=O)[C@H](CC(C)C)NC(=O)CNC(=O)[C@H](CCCCN)NC(=O)[C@H](CCCCN)NC(=O)[C@H](CCC(N)=O)NC(=O)[C@H](C)NC(=O)CNC(=O)[C@H](CCCCN)NC(=O)[C@H](Cc2ccc(O)cc2)NC(=O)COCCOCCNC(=O)COCCOCCNC(=O)COCCOCCNC(=O)COCCOCCNC(=O)CC[C@H](NC(=O)CC[C@H](NC(=O)CCCCCCCCCCCCCCCCC(=O)O)C(=O)O)C(=O)O)CSSC[C@@H](C(=O)O)NC(=O)CNC(=O)[C@H](CC(C)C)NC(=O)CNC(=O)[C@H](CO)NC(=O)[C@H](CC(C)C)NC(=O)[C@H](CO)NC(=O)CNC1=O [compound 1478] ({C18 diacid-γGlu-γGlu-AEEA-AEEA-AEEA-AEEA}-YKGAQKKGLSQGCFGLPLDRIGSLSGLGC-OH; disulfide 13-29; C-terminus assumed) | 26.6% | 1.98% | – | – |
| CC[C@H](C)[C@@H]1NC(=O)[C@H](CCCNC(=N)N)NC(=O)[C@H](CCC(=O)O)NC(=O)[C@H](CC(C)C)NC(=O)[C@@H]2CCCN2C(=O)[C@H](CC(C)C)NC(=O)CNC(=O)[C@H](Cc2ccccc2)NC(=O)[C@@H](NC(=O)CNC(=O)[C@H](CCC(N)=O)NC(=O)[C@H](CO)NC(=O)CNC(=O)CNC(=O)[C@H](CCCCN)NC(=O)[C@H](CCCCN)NC(=O)[C@H](CCC(N)=O)NC(=O)[C@H](C)NC(=O)CNC(=O)[C@H](CCCCN)NC(=O)[C@H](Cc2ccc(O)cc2)NC(=O)COCCOCCNC(=O)COCCOCCNC(=O)COCCOCCNC(=O)COCCOCCNC(=O)CC[C@H](NC(=O)CC[C@H](NC(=O)CCCCCCCCCCCCCCCCC(=O)O)C(=O)O)C(=O)O)CSSC[C@@H](C(=O)O)NC(=O)CNC(=O)[C@H](CC(C)C)NC(=O)CNC(=O)[C@H](CO)NC(=O)[C@H](CC(C)C)NC(=O)[C@H](CO)NC(=O)CNC1=O [compound 1489] ({C18 diacid-γGlu-γGlu-AEEA-AEEA-AEEA-AEEA}-YKGAQKKGGSQGCFGLPLERIGSLSGLGC-OH; disulfide 13-29) | 3.7% | 2.12% | 0.22 nM | – |
